Test results published in patent publication US11466024B2, “Bicylic compound acting as an inhibitor” (CHIA TAI TIANQING PHARMACEUTICAL GROUP CO., LTD., priority 2017, dated 2022).
Structures can show the parent of a compound that is named as a salt.

Key:
RORγ = biological target: T1, RORγ (Homo sapiens, UniProt P51449); assay: In vitro test for inhibitory activity on RORγ: luciferase reporter cells expressing chimeric Gal4-RORγ receptor; type: cell-based; conditions: Gal4 hybrid receptor luciferase reporter, HEK293, 24 hours incubation
T1 sequence (P51449 97-518): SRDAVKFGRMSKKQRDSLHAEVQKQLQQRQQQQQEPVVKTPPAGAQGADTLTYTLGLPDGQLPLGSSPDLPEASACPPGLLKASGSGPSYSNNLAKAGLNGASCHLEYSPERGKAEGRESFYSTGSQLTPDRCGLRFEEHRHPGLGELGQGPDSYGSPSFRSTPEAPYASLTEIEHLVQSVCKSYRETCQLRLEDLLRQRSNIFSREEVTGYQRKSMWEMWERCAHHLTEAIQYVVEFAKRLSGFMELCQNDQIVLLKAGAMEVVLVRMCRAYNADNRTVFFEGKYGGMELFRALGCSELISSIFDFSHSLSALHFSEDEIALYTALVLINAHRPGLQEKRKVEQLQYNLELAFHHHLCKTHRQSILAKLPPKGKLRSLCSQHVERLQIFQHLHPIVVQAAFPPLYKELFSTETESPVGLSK
Protocol: Reporter cells: Reporter cells expressing a chimeric RORγ receptor were used in this experiment. The chimeric RORγ receptor was a RORγ receptor formed by replacing the N-terminal DNA-binding domain of the natural RORγ protein with the DNA-binding domain of the yeast Gal4 protein. The luciferase reporter gene was located at the downstream of the Gal4 activating sequence (UAS).
Step 1: Reporter cells were prepared into a cell suspension using INDIGO's Cell Recovery Medium (CRM, containing 5% fetal bovine serum treated by activated carbon). The cell suspension was dispensed into a white 96-well culture plate in a volume of 100 μl/well.
Step 2: Eight concentration gradients were set for each test compound, and the test was conducted twice at each concentration. Prior to the experiment, the main stock solution of the test compound was serially diluted with DMSO, so as to formulate solutions with “1000×-concentration” relative to each of the final test concentrations. Subsequently, the compound was further diluted with the cell recovery medium (CRM, containing 5% fetal bovine serum treated by activated carbon), so as to formulate test working solutions with “2×-concentration”. As per a volume of 100 μl/well, the test working solutions were respectively added to the test wells in which the reporter cells were added in advance, so as to obtain the desired final test concentrations. The residual concentrations of DMSO in all test wells were 0.1%. The test plate was incubated in a cell incubator for 24 hours. Conditions of the incubator were set as follows: temperature: 37° C., 5% CO2, humidity: ˜85%.
Step 3: After 24 hours of incubation, the liquid in the culture plate was discarded, 100 μl of luciferase detection reagent was added to each test well, and then, the fluorescence intensity (Relative Luminescence Units, RLUs) in each well was read.
In this test, the reference compound ursolic acid was used as an internal standard of a positive compound to verify the inhibitory effect of the test compound on RORγ in reporter cells of a specific batch. The tests for the reference compound and the test compound were performed simultaneously, and the reference compound and the test compound were thus exposed to the same test reagent and environment. The reference compound group containing 0.1% DMSO as solvent was used as an internal standard of a positive compound, so as to determine the effect of the solvent DMSO on the test results and calculate the percentage reduction in RORγ activity.
The test data was managed and archived by Microsoft Excel, and mean±standard deviation (SD) of RLU, fold of reduction, inhibition rate, coefficient of variation (% CV) and Z factor were calculated. Coefficient of variation (% CV): 100×(SD/Ave. RLU); Fold of reduction for inverse agonist: [Ave. […]

RORC2-LBD = biological target: T2, RORC2-LBD (Homo sapiens, UniProt P51449); assay: In vitro test for inhibitory activity on RORγ: TR-FRET screening (RORC2-LBD / SRC1 peptide interaction); type: biochemical; conditions: Value of the concentration required for 50% inhibition (EC50) of RORγ, 15 nM RORc-LBD, 200 nM SRC1 peptide, 4° C. overnight
T2 sequence (P51449 269-508 limits assumed): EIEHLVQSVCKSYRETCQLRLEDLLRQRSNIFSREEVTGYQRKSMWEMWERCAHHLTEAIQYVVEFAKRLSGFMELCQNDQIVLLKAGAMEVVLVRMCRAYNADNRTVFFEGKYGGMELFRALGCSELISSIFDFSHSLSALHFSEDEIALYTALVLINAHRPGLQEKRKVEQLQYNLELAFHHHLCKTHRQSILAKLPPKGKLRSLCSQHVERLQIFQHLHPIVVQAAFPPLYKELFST
Source text: The compounds of the present application was able to regulate (inhibit) the bioactivity of the nuclear receptor RORγ, and the strength of this regulatory (inhibitory) effect could be evaluated by a TR-FRET (time-resolved fluorescence resonance energy transfer) screening system. Nuclear receptor cofactors (co-activators and co-inhibitors) could regulate the transcription of a target gene by the interaction with nuclear receptors. If a ligand (test compound) affected the interaction between the nuclear receptors and the cofactors, this ligand (test compound) was able to regulate the transcription of the corresponding gene.
This method adopted the TR-FRET (time-resolved fluorescence resonance energy transfer) technique to determine the ability of a compound to regulate the interaction between the polypeptide indirectly bound to APC […] (namely, APC was indirectly bound to the polypeptide by binding to Streptavidin and biotin) and RORC2-LBD linked to a europium (Eu)-labeled anti-His antibody (Perkin Elmer #AD0111). In the absence of the compound, RORC2 could bind to an APC-modified polypeptide. If the compound was an agonist, it could enhance the interaction between RORC2 and the APC-modified polypeptide after binding to RORC2. On the contrary, if the compound was an inverse agonist, it could inhibit the interaction between RORC2 and the APC-modified polypeptide after binding to RORC2. When the APC-modified polypeptide and the Eu-labeled anti-His antibody-RORC2-LBD complex approached to each other and the distance therebetween was within a certain distance, energy transfer could occur and a TR-FRET signal was generated.
A buffer solution comprising 50 mM Tris (pH 7.0), 50 mM KCl, 1 mM Na-EDTA, 0.01% BSA (0.1 mg/ml), and 0.1 mM DTT was freshly formulated prior to the experiment.
2.3 Formulation of a RORγ-containing working solution. Prior to the test, a working solution containing 1.67 nM Eu/anti-His and 0.75 μl/well of SF9 cell lysate was freshly formulated, and was placed on ice before use. 25.05 nM of RORγ was added to the working solution.
2.5 Ten concentration gradients were set for each test compound, and duplicate wells were set for each concentration. The formulating method of the test compounds was as follows: […]
2) 15 μl of the RORγ-containing working solution was added to columns 1 to 21 of the tested 384-well plate (the final concentration of Eu/anti-His was 1 nM, and the final concentration of RORg was 15 nM); and […]
9) data analysis was performed using the ratio of the numerical value detected at an emission wavelength of 665 nm to the numerical value detected at an emission wavelength of 615 nm. […]

[1] = tested on: MOG35-55-induced experimental autoimmune encephalomyelitis (EAE); assay: In vivo pharmacodynamic research on MOG35-55-induced experimental autoimmune encephalomyelitis (EAE) in mice; conditions: G3, 0.5 mg/kg p.o. qd
Protocol: The day of immunization was recorded as day 0, and the subsequent days were marked sequentially. Mice were anesthetized with isoflurane, and 100 μl of the emulsion was administered via subcutaneous injection at three sites (the middle part between shoulder and back, and two sides of the tail that were close to the groin), namely, 33 μl of the emulsion for each site. 0 hour and 48 hours after the injection of the emulsion, 200 ng (i.e. 200 μl) of the PTX solution was intraperitoneal injected. Mice in the normal group were not required to be immunized.
After the immunization on day 0, the immunized mice were randomly divided into 3 groups with 10 mice in each group according to the body weights except for the mice in the normal group, the details were shown in Table 1. FTY720 served as a positive drug, and a dose of […] was an effective dose commonly used in the EAE model.
The first group was normal mice without any treatment; vehicle was administered to the second group; FTY720 was administered to the third group at a dose of 0.5 mg/kg once a day; and the compound of Example 1 was administered to the fourth group at a dose of 75 mg/kg twice a day. The administration lasted for 25 days in total. The volume of intragastric administration was 10 ml/kg.
The day when animals were immunized was day 0. Animal body weights were recorded three times a week from day 0 to day 10, and the body weights and clinical scores of the animals were closely observed and recorded daily from day 11.
The experimental data was expressed as mean±standard error of mean (Mean±SEM).
The area under the curve of clinical scores over time (i.e. “AUC of clinical scores” or “area under the curve of clinical scores”) was calculated by analyzing the curve of clinical scores for each animal in each group, and the inhibition rates of the remaining groups (G1, G3, and G4) relative to G2 (solvent control group) were calculated by the mean AUC of clinical scores among groups.

[2] = tested on: imiquimod-induced psoriasis; assay: In vivo pharmacodynamic study in imiquimod (IMQ)-induced psoriasis model in mice; design: species or system C57BL/6 mice; key to Clinical scores (Mean ± SEM, n = 8): 0 = no disease, 1 mild, 2 moderate, 3 severe, 4 very severe; conditions: 5 mg/kg, ig
Protocol: 6- to 8-week old female C57BL/6 mice were selected, depilated on the backs, and sensitized two days later except for the sham operation group. On the day of sensitization, the mice were randomly divided into the following 6 groups (8 mice per group). Group I was a sham operation group; Group II was a vehicle control group and PBS was administered; Group III was a positive control group and 5 mg/kg methotrexate was administered; Groups IV, V and VI were ip treatment group, ig treatment group, and topical treatment group of the compound of Example 1, and 75 mg/kg of the compound of Example 1 was administered via intraperitoneal injection, intragastric administration, and dorsal application, respectively. Administration was started on the day of sensitization, once daily for Group III and twice daily for Groups IV to VI. On the day of sensitization, the mice in Groups II to VI were given 60 to 80 mg of imiquimod cream (5%) on the dorsal skin for 4 consecutive days. (Please refer to Bouchaud, G., et al., Epidermal IL-15Ralpha acts as an endogenous antagonist of psoriasiform inflammation in mouse and man. J. Exp. Med., 2013. 210(10): p. 2105-17.)
The mice were weighed daily from the day of sensitization, and the skin scales, induration, and erythema were observed and scored according to a four-grade scoring method: 0 point, no disease; 1 point, mild; 2 points, moderate; 3 points, severe; and 4 points, very severe. (Please refer to Qin, S., et al., Endogenous n-3 polyunsaturated fatty acids protect against imiquimod-induced psoriasis-like inflammation via the IL-17/IL-23 axis. Mol Med Rep, 2014. 9(6): p. 2097-104.)

SMILES: CCS(=O)(=O)c1ccc(CNC(=O)c2cc3c(s2)C(C(C)C)N(CC2CCC(C(F)(F)F)CC2)C3=O)nc1 (single isomer, unassigned) [Example 3]
- EC50 (RORγ; Specific value of the concentration required for 50% inhibition (EC50) of RORγ): 147 nM
- EC50 (RORγ; Value of the concentration required for 50% Inhibition (EC50) of RORγ): 100 to 500 nM
- EC50 (RORC2-LBD): 100 to 500 nM

SMILES: CCS(=O)(=O)c1ccc(CNC(=O)c2cc3c(s2)C(C(C)C)N(CC2CCC(C(F)(F)F)CC2)C3=O)nc1 (single isomer, unassigned) [Example 4]
- EC50 (RORC2-LBD): 1000 to 5000 nM

SMILES: CCS(=O)(=O)c1ccc(CNC(=O)c2cc3c(s2)C(C(C)C)N(Cc2ccc(C(F)(F)F)cc2)C3)nc1 (stereo not shown) [Example 9]
- EC50 (RORC2-LBD): < 100 nM

SMILES: CCCCCCCCc1ccc(CCC(N)(CO)CO)cc1 [FTY720, fingolimod hydrochloride, reference compound]
- inhibition rate of AUC of clinical scores relative to solvent control group ([1]; 25 days, FIG. 2): 100%
- morbidity of EAE ([1]; from the beginning to end, FIG. 3): 0
- body weight changes ([1]; significantly different from solvent control group, FIG. 4): kept increasing

SMILES: CN(Cc1cnc2nc(N)nc(N)c2n1)c1ccc(C(=O)N[C@@H](CCC(=O)O)C(=O)O)cc1 [Methotrexate, reference compound]
- Clinical scores (Mean ± SEM, n = 8) ([2]; Day 1): 0 ± 0
- Clinical scores (Mean ± SEM, n = 8) ([2]; Day 2): 0.19 ± 0.13
- Clinical scores (Mean ± SEM, n = 8) ([2]; Day 3): 0.50 ± 0.13
- Clinical scores (Mean ± SEM, n = 8) ([2]; Day 4): 0.88 ± 0.25
- Clinical scores (Mean ± SEM, n = 8) ([2]; Day 5): 0.93 ± 0.23
